What all share (assay type): cell-based
In assay [1] the test system is P. fluorescens in biofilm. Kind of assay: Biofilm bactericidal property test (Test example 5). The settings on record: untreated 40000 cfu/well. On the procedure: A number of a viable bacterium in the biofilm was measured by adding 1 mL of normal saline to the surface material on which a biofilm was adsorbed, destroying the biofilm using a ultrasonic washing machine, collecting an elution liquid, diluting the elution liquid from 10^2 to 10^8 using normal saline, inoculating the diluted solution into petri Film™ broth manufactured by 3M, performing cultivation at 30° C. for 1 week, and counting colonies.
After the test drug was contacted with a biofilm, a bactericidal property against the bacterium in the biofilm was tested. In a microplate of Test example 3 in which a biofilm was formed, 1 mL of each test drug was added for an immersion for 1 minute, 10 minutes, 30 minutes and 60 minutes. The test drug was removed after the lapse of contact time, and the reside was immediately washed using 1 mL of normal saline two times. In the microplate, 1 mL of normal saline was added. The bacterium was eluted in the normal saline by treating the mixture for 1 minute using an ultrasound bath to destroy the biofilm. The eluate was diluted from 10^2 to 10^8 using sterilized normal saline, and inoculated to Petrifilm™ broth manufactured by 3M for a cultivation at 30° C. for 1 week. Then, the number of colonies was counted and the number of viable bacteria was measured. The number of viable bacteria was 40000 cfu/well in the untreatment case; on the one hand, it was confirmed that the bacteria number in a biofilm was reduced by an immersion in the fine particle suspension in Examples 37 to 39 as the number of viable bacteria was reduced.

Assay [2] deals with P. fluorescens biofilm. Nature of the assay: Biofilm removing effect test after immersion in drug (Test example 3). The settings on record: 1-week biofilm in 48-well microplate, CV staining. The procedure: (§1) A test piece was taken out after the cultivation and washed using normal saline, and a biofilm amount adhered on the test piece surface was measured. The biofilm amount was measured by CV (crystal violet) staining method. Specifically, a test piece was immersed in 0.1 wt % CV aqueous solution for 30 minutes, an excessive CV was washed out using water, an extraction from the stained region was carried out using 98% ethanol, and an absorbance of 500 nm was measured.
SCD broth containing the bacterial liquid of P. fluorescens having a concentration of 10^6 cfu/mL prepared in Test example 1 was added to 48-well microplate manufactured by Sumitomo Bakelite Co., Ltd. for cultivation at 30° C. for 1 week to form a biofilm in the plate. The bacterial liquid as supernatant was removed, and the residue was rinsed using a sterilized normal saline and dried. The test liquid was prepared by a similar method to Test example 2. Specifically, a fine particle suspension was prepared so that a concentration of GPE-ized polycarboxylic acid became 0.5 wt % and a concentration of ε-PL became 0.04 wt % in the suspension. In a microplate in which a biofilm was formed, 1 mL of each test liquid was added to immerse the biofilm for 1 minute, 10 minutes, 30 minutes or 60 minutes to evaluate a biofilm removing effect at every immersion (contact) time. The test drug was removed after a lapse of the immersion (contact) time, and the residue was immediately washed using 1 mL of normal saline two times and dried to measure a biofilm amount by CV staining method described in Test example 2. A biofilm removing rate was calculated by the following formula: Biofilm removing rate (%)=(measurement value of untreatment−measurement value after immersion in test liquid)/(measurement value of untreatment)×100

In assay [3] the test system is P. fluorescens biofilm. Kind of assay: Biofilm inhibition test after immersion in (contact with) drug (Test example 4). The settings on record: then re-cultivation in SCD broth 30° C. 24 hours, CV staining. On the procedure: as §1
In a microplate of Test example 3 in which a biofilm was formed, 1 mL of each test drug was added for an immersion for 1 minute, 10 minutes, 30 minutes or 60 minutes. The test drug was removed after the contact time, and the residue was washed using 1 mL of normal saline two times. In the microplate, 1 mL of SCD broth was added for a cultivation at 30° C. for 24 hours to form a biofilm again and to evaluate a re-inhibition property of a biofilm. An amount of a biofilm was measured after the cultivation. An amount of a biofilm was measured by CV staining method described in Test example 2. A biofilm inhibition rate was calculated by the following formula: Biofilm inhibition rate (6)=(measurement value of untreatment−measurement value after immersion in test liquid)/(measurement value of untreatment)×100

For assay [4], the system named is P. fluorescens biofilm. Kind of assay: Anti-biofilm coat test using fine particle suspension (Test example 2). The settings on record: water washing, cultivation 30° C. 48 hours, CV staining. The procedure:
as §1
P. fluorescens, which is a gram-negative bacillus having high productivity of a biofilm, was used for evaluating an anti-biofilm property. A dried standard product of P. fluorescens was obtained as NBRC No. 14160 and recovered by the following method. DAIGO growth medium 802 (8.4 g) manufactured by Wako Pure Chemical Corporation and 300 mL of purified water were weighed and added into a beaker, and the mixture was stirred at room temperature for about 30 minutes for dispersion. A recovering liquid was sterilized by an autoclave, 0.2 mL of the recovering liquid was taken out using a micropipette and added into an ample of a dried standard product of P. fluorescens, and the mixture was stirred. Separately, 25 mL of SCD broth (Soybean-Casein Digest Broth) manufactured by Wako Pure Chemical Corporation was added in a flask, and […] of the above P. fluorescens suspension was subsequently added thereto. The bacterium was cultivated at 30° C. and a velocity of 150 rpm in a constant temperature incubator shaker for 24 hours for cultivation. After the cultivation, the bacterium was added in 80% glycerol, and the bacterium liquid was preserved at −80° C.
A fine particle suspension of ε-PL was prepared by using the GPE-ized polycarboxylic acid of Production examples 1 to 5 as a test sample liquid for an anti-biofilm coat. A fine particle suspension was prepared by mixing the both of the aqueous solutions of the GPE-ized polycarboxylic acid and ε-PL so that a concentration of the GPE-ized polycarboxylic acid in the fine particle suspension became 0.5 wt % and a concentration of ε-PL became 0.045 wt %. For comparison, a simple ε-PL aqueous solution, an IPMP (4-isopropyl-3-methylphenol, manufactured by Wako Pure Chemical Corporation) ethanol solution and a silver nano particle aqueous suspension manufactured by JAPAN ION Corporation having concentrations of 0.045 wt % were respectively produced. […] The test piece coated with each drug was stirred at 25° C. and 350 rpm for 1 minute for washing with water as a water section environment. The test piece after the water washing was immersed in a broth containing the bacterium liquid prepared in Test example 1, and a biofilm was formed by a cultivation at 30° C. for 48 hours. A concentration was adjusted to 10 cfu/mL by diluting the P. fluorescens liquid with SCD broth. The test piece was taken cut after the cultivation, washed using normal saline, and an amount of a biofilm adhered on the surface of the test piece was measured. A biofilm inhibition rate was calculated by the following formula: Biofilm inhibition rate (%)=(measurement value of untreated test piece−measurement value of test piece coated with test liquid)/(measurement value of untreated test piece)×100

The mark [5] stands for this setting: adhesion amount 0.02 μg/cm^2 on polyvinyl chloride test piece.
Where [6] appears, read: adhesion amount 0.12 μg/cm^2 on polyvinyl chloride test piece.
The mark [7] stands for this setting: adhesion amount 0.04 μg/cm^2 on polyvinyl chloride test piece.
[8] abbreviates: adhesion amount 0.01 μg/cm^2 on polyvinyl chloride test piece.
The mark [9] stands for this setting: adhesion amount 0.08 μg/cm^2 on polyvinyl chloride test piece.

Turning to ε-poly-L-lysine [compound 25], the “Number of viable bacteria in biofilm every contact time” value in assay [1] (contact time 1 min), in assay [1] (contact time 10 min), in assay [1] (contact time 30 min) and in assay [1] (contact time 60 min) was 1200 cfu/well in each case.

For the compound `Cc1cc(O)ccc1C(C)C` [compound 24, 4-isopropyl-3-methylphenol], the “Removal rate of biofilm every contact time (Test example 3)” value in the assay with P. fluorescens biofilm [2] (contact time 1 min) stood at 60%; with P. fluorescens biofilm [2] (contact time 10 min), 56%; in the assay on P. fluorescens biofilm [2] (contact time 30 min), 61%; with P. fluorescens biofilm [2] (contact time 60 min), 52%. The “Removal rate of biofilm every contact time (Test example 4)” value was found to be 22% with P. fluorescens biofilm [3] (contact time 1 min), 33% in the assay on P. fluorescens biofilm [3] (contact time 10 min), 37% with P. fluorescens biofilm [3] (contact time 30 min) and 57% with P. fluorescens biofilm [3] (contact time 60 min).

As for `Cc1cc(O)ccc1C(C)C` [compound 18, 4-isopropyl-3-methylphenol], in the assay on P. fluorescens biofilm [4] (setting [5]), the Biofilm inhibition rate is on record as 48%.

The compound ε-poly-L-lysine [compound 11] yielded a Biofilm inhibition rate in the assay on P. fluorescens biofilm [4] (setting [6]) of 57%.

`Cc1cc(O)ccc1C(C)C` [compound 19, 4-isopropyl-3-methylphenol]: the Biofilm inhibition rate in the assay on P. fluorescens biofilm [4] (setting [7]) stood at 57%.

The compound ε-poly-L-lysine [compound 7] registered a Biofilm inhibition rate in the assay with P. fluorescens biofilm [4] (setting [8]) of 5%.

ε-poly-L-lysine [compound 9] registered a Biofilm inhibition rate in the assay with P. fluorescens biofilm [4] (setting [7]) of 45%.

On to `Cc1cc(O)ccc1C(C)C` [compound 21, 4-isopropyl-3-methylphenol], for which, in the assay with P. fluorescens biofilm [4] (setting [6]), the Biofilm inhibition rate is 75%.

In the case of ε-poly-L-lysine [compound 22], the “Removal rate of biofilm every contact time (Test example 3)” value with P. fluorescens biofilm [2] (contact time 1 min) worked out at 87%; in the assay on P. fluorescens biofilm [2] (contact time 10 min) it was 87%; in the assay with P. fluorescens biofilm [2] (contact time 30 min) it was 84%; in the assay with P. fluorescens biofilm [2] (contact time 60 min), 83%. Moreover, the “Removal rate of biofilm every contact time (Test example 4)” value with P. fluorescens biofilm [3] (contact time 1 min) is on record as 22%; in the assay with P. fluorescens biofilm [3] (contact time 10 min) it was 38%; in the assay with P. fluorescens biofilm [3] (contact time 30 min), 40%; with P. fluorescens biofilm [3] (contact time 60 min) it was 45%.

`Cc1cc(O)ccc1C(C)C` [compound 20, 4-isopropyl-3-methylphenol] displayed a Biofilm inhibition rate with P. fluorescens biofilm [4] (setting [9]) of 66%.

In the case of `Cc1cc(O)ccc1C(C)C` [compound 27, 4-isopropyl-3-methylphenol], the “Number of viable bacteria in biofilm every contact time” value in assay [1] (contact time 1 min) is recorded as 1900 cfu/well; in assay [1] (contact time 10 min) it was 800 cfu/well; in assay [1] (contact time 30 min), 800 cfu/well; in assay [1] (contact time 60 min), 800 cfu/well.

With `Cc1cc(O)ccc1C(C)C` [compound 17, 4-isopropyl-3-methylphenol], the Biofilm inhibition rate with P. fluorescens biofilm [4] (setting [8]) is listed as 41%.

As for ε-poly-L-lysine [compound 8], the Biofilm inhibition rate in the assay on P. fluorescens biofilm [4] (setting [5]) turned out to be 29%.

Compound ε-poly-L-lysine [compound 10] showed a Biofilm inhibition rate in the assay on P. fluorescens biofilm [4] (setting [9]) of 52%.
